Columns and labels:
mfT1R2a/mfT1R3 [1] = target: T1, mfT1R2a/mfT1R3 (Oryzias latipes, UniProt Q2MHK2+Q2MHK5); experiment: Effect of anions, cations and osmotic pressure on cellular responses, cells in 10 mM Cl- buffer, mfT1R2a/mfT1R3; format: cell-based, medaka fish; conditions: for response to fixed concentration of L-Gln on coapplication: coapplied with 200 µM L-Gln, final [Cl-]o up to 60 mM
T1 sequence (Q2MHK5 20-819): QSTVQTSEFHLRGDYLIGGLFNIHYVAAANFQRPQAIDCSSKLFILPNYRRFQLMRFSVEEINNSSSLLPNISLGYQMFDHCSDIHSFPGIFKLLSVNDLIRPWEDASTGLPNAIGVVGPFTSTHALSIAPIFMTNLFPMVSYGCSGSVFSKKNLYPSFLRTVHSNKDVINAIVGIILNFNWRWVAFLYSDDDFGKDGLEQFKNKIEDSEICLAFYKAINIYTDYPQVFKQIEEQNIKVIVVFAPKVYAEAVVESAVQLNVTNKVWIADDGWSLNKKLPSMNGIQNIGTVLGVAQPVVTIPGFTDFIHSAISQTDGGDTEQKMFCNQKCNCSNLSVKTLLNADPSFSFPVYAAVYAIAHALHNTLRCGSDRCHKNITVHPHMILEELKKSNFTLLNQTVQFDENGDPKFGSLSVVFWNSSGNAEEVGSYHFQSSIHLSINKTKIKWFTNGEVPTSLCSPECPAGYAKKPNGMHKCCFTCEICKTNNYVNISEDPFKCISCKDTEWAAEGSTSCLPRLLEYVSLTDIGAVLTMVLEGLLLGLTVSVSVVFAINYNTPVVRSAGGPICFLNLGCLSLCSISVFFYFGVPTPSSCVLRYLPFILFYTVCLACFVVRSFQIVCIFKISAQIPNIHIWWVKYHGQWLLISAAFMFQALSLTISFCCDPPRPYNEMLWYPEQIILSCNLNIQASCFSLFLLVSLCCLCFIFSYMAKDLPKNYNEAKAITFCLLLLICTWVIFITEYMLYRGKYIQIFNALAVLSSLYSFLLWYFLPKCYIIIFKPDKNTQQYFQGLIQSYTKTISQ
T1 sequence (Q2MHK2 20-853): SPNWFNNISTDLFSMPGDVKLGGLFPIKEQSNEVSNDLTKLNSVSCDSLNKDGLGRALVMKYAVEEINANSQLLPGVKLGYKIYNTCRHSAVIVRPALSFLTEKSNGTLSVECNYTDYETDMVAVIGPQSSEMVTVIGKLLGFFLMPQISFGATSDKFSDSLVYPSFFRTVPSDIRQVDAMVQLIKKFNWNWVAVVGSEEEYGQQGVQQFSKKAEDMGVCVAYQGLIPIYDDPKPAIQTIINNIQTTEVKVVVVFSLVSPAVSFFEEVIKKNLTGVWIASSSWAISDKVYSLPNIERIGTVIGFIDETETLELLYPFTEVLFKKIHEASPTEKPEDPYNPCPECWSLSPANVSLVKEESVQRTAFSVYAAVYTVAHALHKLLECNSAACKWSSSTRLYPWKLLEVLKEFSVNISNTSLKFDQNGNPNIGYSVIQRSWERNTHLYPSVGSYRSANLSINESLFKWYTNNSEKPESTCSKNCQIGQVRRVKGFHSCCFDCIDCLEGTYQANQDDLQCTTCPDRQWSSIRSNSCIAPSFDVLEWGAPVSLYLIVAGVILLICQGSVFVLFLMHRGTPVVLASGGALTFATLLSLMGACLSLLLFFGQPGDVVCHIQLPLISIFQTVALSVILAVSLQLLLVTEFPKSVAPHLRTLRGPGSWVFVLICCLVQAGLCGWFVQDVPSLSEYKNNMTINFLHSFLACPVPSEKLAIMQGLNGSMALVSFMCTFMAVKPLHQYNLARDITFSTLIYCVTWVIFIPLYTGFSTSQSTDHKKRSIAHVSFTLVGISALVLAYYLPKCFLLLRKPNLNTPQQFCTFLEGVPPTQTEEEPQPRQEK
Experimental: Cells were seeded in 96-well plates coated with ε-poly-L-lysine at approximately 70,000 cells per well. […] Fluorescence changes were monitored at 2 s intervals, as described above. […] Three independent experiments were conducted for each receptor, and representative results are shown as the mean ± SEM (n = 3 replicates). Statistical tests were conducted using KyPlot version 6.0 (KyensLab Inc., Tokyo, Japan). Statistical significance was set at p < 0.05.

mfT1R2a/mfT1R3 [2] = target: T1, mfT1R2a/mfT1R3; experiment: Ca2+ mobilization dose-response assay, stable cells expressing mfT1R2a/mfT1R3 with G16gust44
Experimental: The buffers with lower Cl^− were prepared by progressively replacing NaCl, KCl, CaCl2 and MgCl2 in the buffer with gluconate equivalents[20]. The pH was adjusted to 7.4 with NaOH. Ligands were diluted with the assay buffers at the desired concentrations.
Measurements of the responses of the cells by cell-based assay based on the intracellular Ca^2+ mobilization were carried out as described previously with some modifications[20],[34],[46],[47]. […] The cells were seeded in 96-well plates (clear-bottomed CellBIND surface plate, Corning, Glendale, AZ, USA) coated with ε-poly-L-lysine (Cosmo Bio, Tokyo, Japan) at approximately 70,000 cells per well. After 20 h, the medium was removed and replaced with high Cl^− buffer. After 3 h 30 min incubation at 27 °C, cells were loaded with 5 µM calcium-indicator dye Fluo-8 AM (AAT Bioquest, Sunnyvale, CA, USA) diluted in high Cl^− buffer. After incubation for 30 min at 27 °C, the cells were washed with buffers containing appropriate concentrations of Cl^−. The cellular assay was initiated after 3–5 min of resting and was completed within 5 min. The measurements were made using FlexStation 3 (Molecular Devices, Sunnyvale, CA, USA) at 27 °C. Fluorescence changes (i.e., excitation at 485 nm and emission at 525 nm with a cutoff at 515 nm) were monitored at 2 s intervals. A 100-µL aliquot of assay buffer supplemented with 2 × ligands was added at 20 s, and scanning was continued for an additional 40 s. The response of each well was determined as ∆RFU (delta relative fluorescent units), which was calculated as (maximum fluorescent value)—(minimum fluorescent value). […] Such normalized data from more than three independent experiments are reported as the mean ± standard error of the mean (SEM). Dose‒response fitting curves were calculated by Prism 9 (GraphPad Software, San Diego, CA) using nonlinear regression (log(agonist) vs. response—variable slope), based on the integrated data from the several independent experiments.

| SMILES | response to fixed concentration of L-Gln on coapplication (mfT1R2a/mfT1R3 [1]; cells in 10 mM Cl- buffer) | additional anion concentration needed to significantly increase the response intensity to L-Gln (mfT1R2a/mfT1R3 [1]; added to 10 mM Cl- buffer with 200 µM L-Gln) [mM] | cellular response to the salt alone (mfT1R2a/mfT1R3 [1]; without agonist, cells in 10 mM Cl- buffer) | [Cl-]o at which sensitivity is clearly reduced (mfT1R2a/mfT1R3 [2]; agonist L-Gln, buffers with 10-141.4 mM Cl-) | [Cl-]o required for saturation of the sensitivity (mfT1R2a/mfT1R3 [2]; sensitivity to L-Gln, Fig. 2A,D) [mM] | EC50 in 10 mM Cl- buffer relative to high Cl- buffer (mfT1R2a/mfT1R3 [2]; 10 mM vs 141.4 mM Cl- buffer) [times higher] |
| --- | --- | --- | --- | --- | --- | --- |
| O=C([O-])[C@H](O)[C@@H](O)[C@H](O)[C@H](O)CO.[Na+] [Na-gluconate, sodium gluconate] | did not enhance |  |  |  |  |  |
| [Cl-].[Na+] [NaCl] | enhanced | 30 | did not elicit | below 80 mM | 40 to 80 |  |
| C[C@H](N)C(=O)O [L-Ala, L-alanine] |  |  |  |  |  | ~7 |
